Results as given in patent publication US20100212031A1, “Method for improving efficiencies in livestock production” (priority 2002, published 2010).
Where “and” joins values, the source holds several entries; their conditions need not be identical. Equal entries are not always repeated. Marks after values point to notes of the source that are not given here.

Columns and labels:
[1] = Test 4 / Group 3 feedlot study: body weight growth of steers by leptin (ob) genotype and drug status; format: in vivo, cattle (steers of mixed breed); conditions: Drug group; for BW, lbs d 1: 1st measure; for BW, lbs d 1 / BW, lbs d 2 / BW, lbs d 3: before drug; for BW, lbs d 2: 2nd measure; for BW, lbs d 3: 3rd measure; for BW, lbs d 4: 4th measure, after drug
Procedure: (§1) In test 4, 4172 hd of animals randomized to treatment and pen were housed in 48 pens, such that a study was conducted to assess the effect of ob genotype on fat growth, body weight growth, and carcass parameters; as well as any potential interaction with the beta andrenergic agonist Zilpaterol. […] 7.89 mm in the CT animals, and 7.63 mm in CC animals; with an overall statistical genotype effect of P=0.01. […] 494.6 lbs for CT animals, and 479.5 lbs for the CC animals; with an overall statistical genotype effect of P<0.01. Also importantly, the rate of fat change over time depended on ob genotype (Table 2).
(§2) Three groups of cattle were used to evaluate the effect of leptin genotype on back fat measurements in beef cattle. Originally two groups of cattle were fed and managed with the objective of evaluating the effect of a nutritional treatment on backfat measures and were randomly assigned to dietary treatment. The third experiment was fed and managed with the objective to evaluate 1) the effect the ob gene genotype on carcass parameters, 2) the effect of ob genotype on fat growth in the live animal, and 3) any potential interaction between the beta andrenergic agonist Zilpaterol Hydrochloride and ob genotype. The original experimental design for group 1 & 2 was a randomized complete block design (RCBD) with steers being randomly assigned to block, or experimental pen, dietary treatment was included in the final statistical model detailed below. […] Group 1 was composed of 319 steers and was of mixed breed, and of either European or British descent without any representation of Bos indicus bloodlines. The breeds represented in Group 1 were Hereford, Angus, Charolais, Simmental, and Limousin. The second group included 157 Charolais cross steers. All the cattle entered the finishing period when body weight was approximately 385 kg. Group 3 was composed of 4172 steers of mixed breed, and all cattle within a block were slaughtered on a single day.
Backfat was analyzed with repeated measurements at 1, 55 and 139 days on feed for Group 1, 69, 111, and 120 days on feed for Group 2, and 1, 60, 104, and 129 days on feed for Group 3 using the MIXED procedure of SAS (Wang and Goodewardene, 2004). The following model was used: […]=μ+ρi+αj+λκ+βl+(αβ)jl+(λβ)kl+eijkl. Where Yijkl is the observation for the jth treatment ration or drug status within the ith block at the kth measurement, μ is the overall mean, ρi is the fixed effect of the ith block, aj is the fixed effect of the jth treatment ration, λk is the fixed effect of the kth measurement, βl is the fixed effect for leptin genotype (GENO) and eijkl, is the normally identical and independently distributed error term. The interaction between leptin genotype and diet, (αβ)jl, and time of measurement (λβ)kl, was also tested. A heterogeneous autoregressive-one covariance structure was utilized in analysis of backfat. Least square means and standard errors for body weight and back fat were determined using the ESTIMATE statement in PROC MIXED. The SLICE option was used to estimate least square means of GENO on days of measurements with the DIFF option being used to detect differences. Significance for the main effect of GENO and pairwise comparisons was declared at P<0.05 and trends are noted P<0.10. […] Within each group of cattle retrospective exponential models were fitted to the longitudinal measurements of back fat as described by Brethour (2000). The NLIN procedure of SAS was used to fit the nonlinear exponential function Y=Ae^(kt), where Y=projected backfat, A=the initial backfat, k=rate of increase, and t=time in days.
In test 4, 4172 hd of animals randomized to treatment and pen were housed in 48 pens, such that a study was conducted to assess the effect of ob genotype on fat growth, body weight growth, and carcass parameters; as well as any potential interaction with the beta andrenergic agonist Zilpaterol. […]

[2] = Test 4 / Group 3 feedlot study: backfat by serial ultrasound, steers by leptin (ob) genotype and drug status; format: in vivo, cattle (steers of mixed breed); conditions: Drug group; for Backfat, mm d 1: 1st measure (1 days on feed); for Backfat, mm d 1 / Backfat, mm d 2 / Backfat, mm d 3: before drug; for Backfat, mm d 2: 2nd measure (60 days on feed); for Backfat, mm d 3: 3rd measure (104 days on feed); for Backfat, mm d 4: 4th measure (129 days on feed), after drug; for d to 10 mm (days needed to reach target backfat) / d to 12 mm (days needed to reach target backfat) / d to 14 mm (days needed to reach target backfat): from fitted model; for Rate (k, rate of backfat; fitted nonlinear parameter): model Y = 3.88e^kt, animal as experimental unit
Procedure: as §1, §2
Backfat was measured after 1, 55 and 139 days on feed for Group 1, 69, 111, and 120 days on feed for Group 2, and 1, 60, 104, and 129 days on feed for Group 3 using an Aloka 500V diagnostic ultrasound unit equipped with a 17.2 cm, 3.5 MHz linear array transducer (Overseas Monitor Corporation, Ltd., Richmond, B.C.) following the procedure described by Perkins et al., (1992). Internal calipers of the ultrasounds unit were used to measure back fat. Ultrasound images were recorded on a VHS tale (Panasonic AG-5200; Matsushita Electric of Canada, Mississauga, ON).
Backfat was analyzed with repeated measurements at 1, 55 and 139 days on feed for Group 1, 69, 111, and 120 days on feed for Group 2, and 1, 60, 104, and 129 days on feed for Group 3 using the MIXED procedure of SAS (Wang and Goodewardene, 2004). The following model was used: […]=μ+ρi+αj+λκ+βl+(αβ)jl+(λβ)kl+eijkl. Where Yijkl is the observation for the jth treatment ration or drug status within the ith block at the kth measurement, μ is the overall mean, ρi is the fixed effect of the ith block, aj is the fixed effect of the jth treatment ration, λk is the fixed effect of the kth measurement, βl is the fixed effect for leptin genotype (GENO) and eijkl, is the normally identical and independently distributed error term. The interaction between leptin genotype and diet, (αβ)jl, and time of measurement (λβ)kl, was also tested. A heterogeneous autoregressive-one covariance structure was utilized in analysis of backfat. Least square means and standard errors for body weight and back fat were determined using the ESTIMATE statement in PROC MIXED. The SLICE option was used to estimate least square means of GENO on days of measurements with the DIFF option being used to detect differences. Significance for the main effect of GENO and pairwise comparisons was declared at P<0.05 and trends are noted P<0.10. […]

[3] = administration of exogenous leptin; mice, chickens, pigs and sheep; cited from earlier work

CC(C)N[C@@H]1CCn2c(=O)[nH]c3cccc(c32)[C@H]1O.Cl (racemic) [Drug, Zilpaterol Hydrochloride]
ADG, lbs/d (Average daily live bodyweight gain in pounds) ([1]; CC Genotype): 3.51 lbs/d | BWCH, lbs: Body weight change before and after drug, difference between 3rd and 4th measure ([1]; CC Genotype): 72.1 lbs | BWCH, lbs: Body weight change, difference between 1st and 4th measure ([1]; CC Genotype): 500.5 lbs | BW, lbs d 1 ([1]; CC Genotype): 893.4 lbs | BW, lbs d 2 ([1]; CC Genotype): 1181.1 lbs | BW, lbs d 3 ([1]; CC Genotype): 1325.0 lbs | BW, lbs d 4 ([1]; CC Genotype): 1394.8 lbs | ADG, lbs/d (Average daily live bodyweight gain in pounds) ([1]; CT Genotype): 3.64 lbs/d | BWCH, lbs: Body weight change before and after drug, difference between 3rd and 4th measure ([1]; CT Genotype): 93.8 lbs | BWCH, lbs: Body weight change, difference between 1st and 4th measure ([1]; CT Genotype): 518.9 lbs | BW, lbs d 1 ([1]; CT Genotype): 890.3 lbs | BW, lbs d 2 ([1]; CT Genotype): 1197.3 lbs | BW, lbs d 3 ([1]; CT Genotype): 1317.1 lbs | BW, lbs d 4 ([1]; CT Genotype): 1407.6 lbs | ADG, lbs/d (Average daily live bodyweight gain in pounds) ([1]; TT Genotype): 3.60 lbs/d | BWCH, lbs: Body weight change before and after drug, difference between 3rd and 4th measure ([1]; TT Genotype): 75.8 lbs | BWCH, lbs: Body weight change, difference between 1st and 4th measure ([1]; TT Genotype): 512.4 lbs | BW, lbs d 1 ([1]; TT Genotype): 890.6 lbs | BW, lbs d 2 ([1]; TT Genotype): 1191.9 lbs | BW, lbs d 3 ([1]; TT Genotype): 1330.0 lbs | BW, lbs d 4 ([1]; TT Genotype): 1399.0 lbs | AFG, mm/d (Average Daily fat gain in millimeters) ([2]; CC Genotype): 0.051 mm/d | Fat CH, mm: Backfat change before and after drug, difference between 3rd and 4th measure ([2]; CC Genotype): 1.24 mm | Fat CH, mm: Backfat change, difference between 1st and 4th measure ([2]; CC Genotype): 7.30 mm | Rate, 10-12 ([2]; CC Genotype): 0.0071 | Backfat, mm d 1 ([2]; CC Genotype): 3.46 mm | Backfat, mm d 2 ([2]; CC Genotype): 7.44 mm | Backfat, mm d 3 ([2]; CC Genotype): 9.60 mm | Backfat, mm d 4 ([2]; CC Genotype): 10.7 mm | d to 10 mm (days needed to reach target backfat) ([2]; CC Genotype): 144 days | d to 12 mm (days needed to reach target backfat) ([2]; CC Genotype): 170 days | d to 14 mm (days needed to reach target backfat) ([2]; CC Genotype): 192 days | Rate (k, rate of backfat; fitted nonlinear parameter) ([2]; CC Genotype): 0.0069^a | AFG, mm/d (Average Daily fat gain in millimeters) ([2]; CT Genotype): 0.053 mm/d | Fat CH, mm: Backfat change before and after drug, difference between 3rd and 4th measure ([2]; CT Genotype): 1.35 mm | Fat CH, mm: Backfat change, difference between 1st and 4th measure ([2]; CT Genotype): 7.56 mm | Rate, 10-12 ([2]; CT Genotype): 0.0072 | Backfat, mm d 1 ([2]; CT Genotype): 3.50 mm | Backfat, mm d 2 ([2]; CT Genotype): 7.74 mm | Backfat, mm d 3 ([2]; CT Genotype): 9.77 mm | Backfat, mm d 4 ([2]; CT Genotype): 11.0 mm | d to 10 mm (days needed to reach target backfat) ([2]; CT Genotype): 135 days | d to 12 mm (days needed to reach target backfat) ([2]; CT Genotype): 160 days | d to 14 mm (days needed to reach target backfat) ([2]; CT Genotype): 182 days | Rate (k, rate of backfat; fitted nonlinear parameter) ([2]; CT Genotype, Hydrochloride): 0.0077^1 and 0.0071^1 | AFG, mm/d (Average Daily fat gain in millimeters) ([2]; TT Genotype): 0.054 mm/d | Fat CH, mm: Backfat change before and after drug, difference between 3rd and 4th measure ([2]; TT Genotype): 1.17 mm | Fat CH, mm: Backfat change, difference between 1st and 4th measure ([2]; TT Genotype): 7.71 mm | Rate, 10-12 ([2]; TT Genotype): 0.0073 | Backfat, mm d 1 ([2]; TT Genotype): 3.62 mm | Backfat, mm d 2 ([2]; TT Genotype): 7.98 mm | Backfat, mm d 3 ([2]; TT Genotype): 10.26 mm | Backfat, mm d 4 ([2]; TT Genotype): 11.3 mm | d to 10 mm (days needed to reach target backfat) ([2]; TT Genotype): 126 days | d to 12 mm (days needed to reach target backfat) ([2]; TT Genotype): 151 days | d to 14 mm (days needed to reach target backfat) ([2]; TT Genotype): 173 days | Rate (k, rate of backfat; fitted nonlinear parameter) ([2]; TT Genotype): 0.0075^bc

leptin: 16-kDa adipocyte-specific polypeptide encoded by the ob (obese) gene
body mass [3]: dramatically reduces | feed intake [3]: dramatically reduces
